This note sets out measurements from patent US20050182025A1, “Amidinylphenyl compounds and their use as fungicides” (priority 2002, published 2005).

What all share (type): in vivo
One assay has as its system Septoria nodorum. Briefly: Test C: preventive spray on wheat seedlings, Septoria glume blotch, disease rating. As to conditions: wheat seedlings sprayed to run-off, inoculated the following day with Septoria nodorum, 48 h saturated atmosphere then 9 days at 20° C.; test concentration not given. The gist of the method:
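Preventive test: one day after spraying (to run-off; 200 ppm ≈ 500 g/ha, in acetone/water with 250 ppm surfactant), seedlings received a S. nodorum spore suspension. After 48 h in saturated air and 9 days in a growth chamber, both at 20° C., % disease control versus controls was scored.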

The next assay concerns Puccinia recondita. In words: Test B: preventive spray on wheat seedlings, wheat leaf rust, disease rating. As to conditions: wheat seedlings sprayed to run-off, inoculated the following day with Puccinia recondita, 24 h saturated atmosphere then 6 days at 20° C.; test concentration not given. Put shortly:
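Preventive test: seedlings inoculated with Puccinia recondita one day after run-off spraying with test suspension (acetone/water, 250 ppm Trem 014; 200 ppm equals 500 g/ha). Rating after 24 h at 20° C in saturation plus 6 days in 20° C growth chamber; 0–100 scale versus controls.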

Assay [1] deals with Erysiphe graminis f. sp. tritici. Briefly: Test A: preventive spray on wheat seedlings, wheat powdery mildew, disease rating. As to conditions: wheat seedlings sprayed to run-off, inoculated the following day with Erysiphe graminis f. sp. tritici, rated after 7 days at 20° C.; test concentration not given. Put shortly: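 Preventive test: Erysiphe graminis f. sp. tritici spore dust applied one day after run-off spraying of seedlings with acetone/water/surfactant suspension, 200 ppm equating to 500 g/ha. Plants held 7 days at 20 °C; ratings give % disease control versus controls, 100 full, 0 none.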

Structures are written as SMILES.

Turning to `CC(=Nc1cc(Cl)c(OCCCC(C)C)c(Cl)c1C)N(C)C` [compound 116], the “Test C disease control rating (100 = 100% disease control, 0 = no disease control relative to the controls)” value with Septoria nodorum amounted to 100%. Besides, the “Test B disease control rating (100 = 100% disease control, 0 = no disease control relative to the controls)” value in the assay on Puccinia recondita amounted to 92%. In addition, in assay [1], the “Test A disease control rating (100 = 100% disease control, 0 = no disease control relative to the controls)” value came out at 87%.
For the molecule `CCN(CC)C(=S)Nc1cc(Cl)c(OCCCC(C)C)c(Cl)c1C` [compound 117], the “Test C disease control rating (100 = 100% disease control, 0 = no disease control relative to the controls)” value with Septoria nodorum was determined as 60%. The “Test B disease control rating (100 = 100% disease control, 0 = no disease control relative to the controls)” value with Puccinia recondita is reported as 37%. In assay [1], the “Test A disease control rating (100 = 100% disease control, 0 = no disease control relative to the controls)” value is 29%.
With `CCN(C)C(=S)Nc1cc(Cl)c(OCCCC(C)C)c(Cl)c1C` [compound 118], in the assay with Septoria nodorum, the “Test C disease control rating (100 = 100% disease control, 0 = no disease control relative to the controls)” value turned out to be 78%. The “Test B disease control rating (100 = 100% disease control, 0 = no disease control relative to the controls)” value in the assay on Puccinia recondita came to 100%. Also, in assay [1], the “Test A disease control rating (100 = 100% disease control, 0 = no disease control relative to the controls)” value is 99%.
Take `Cc1c(NC(=S)N(C)C)cc(Cl)c(OCCCC(C)C)c1Cl` [compound 119]: the “Test C disease control rating (100 = 100% disease control, 0 = no disease control relative to the controls)” value with Septoria nodorum was 78%. Besides, the “Test B disease control rating (100 = 100% disease control, 0 = no disease control relative to the controls)” value in the assay on Puccinia recondita is reported as 64%. In addition, the “Test A disease control rating (100 = 100% disease control, 0 = no disease control relative to the controls)” value in assay [1] was determined as 0%.
Consider `CCN(CC)C(=S)Nc1cc(Cl)c(OCCCC(C)(C)C)cc1C` [compound 120], for which the “Test C disease control rating (100 = 100% disease control, 0 = no disease control relative to the controls)” value in the assay on Septoria nodorum is recorded as 0%. Also, the “Test B disease control rating (100 = 100% disease control, 0 = no disease control relative to the controls)” value with Puccinia recondita is reported as 8%. In addition, in assay [1], the “Test A disease control rating (100 = 100% disease control, 0 = no disease control relative to the controls)” value is given as 91%.
As for `Cc1c(NC(=S)N(C)C)cc(Cl)c(OCCCC(C)(C)C)c1Cl` [compound 121], in the assay with Septoria nodorum, the “Test C disease control rating (100 = 100% disease control, 0 = no disease control relative to the controls)” value was 67%. The “Test B disease control rating (100 = 100% disease control, 0 = no disease control relative to the controls)” value in the assay on Puccinia recondita amounted to 85%. Moreover, the “Test A disease control rating (100 = 100% disease control, 0 = no disease control relative to the controls)” value in assay [1] turned out to be 49%.
`CCN(C)C(=S)Nc1cc(Cl)c(OCCCC(C)(C)C)c(Cl)c1C` [compound 122]: the “Test C disease control rating (100 = 100% disease control, 0 = no disease control relative to the controls)” value in the assay with Septoria nodorum was determined as 0%. Further, the “Test B disease control rating (100 = 100% disease control, 0 = no disease control relative to the controls)” value with Puccinia recondita turned out to be 100%. Also, in assay [1], the “Test A disease control rating (100 = 100% disease control, 0 = no disease control relative to the controls)” value came to 99%.
In the case of `CC(C)CCCOc1cc(Cl)c(NC(=S)N(C)C)cc1Cl` [compound 123], in the assay on Septoria nodorum, the “Test C disease control rating (100 = 100% disease control, 0 = no disease control relative to the controls)” value worked out at 100%. In the assay on Puccinia recondita, the “Test B disease control rating (100 = 100% disease control, 0 = no disease control relative to the controls)” value was 46%. Further, in assay [1], the “Test A disease control rating (100 = 100% disease control, 0 = no disease control relative to the controls)” value came out at 54%.
For the molecule `CCN(C)C(=S)Nc1cc(Cl)c(OCCCC(C)C)cc1Cl` [compound 124], the “Test C disease control rating (100 = 100% disease control, 0 = no disease control relative to the controls)” value with Septoria nodorum is 100%. Further, the “Test B disease control rating (100 = 100% disease control, 0 = no disease control relative to the controls)” value in the assay with Puccinia recondita was 98%. Besides, the “Test A disease control rating (100 = 100% disease control, 0 = no disease control relative to the controls)” value in assay [1] was 98%.
Consider `CCN(C)C(=S)Nc1cc(Cl)c(OCCCC(C)C)cc1Cl` [compound 125], for which the “Test C disease control rating (100 = 100% disease control, 0 = no disease control relative to the controls)” value with Septoria nodorum is recorded as 100%. The “Test B disease control rating (100 = 100% disease control, 0 = no disease control relative to the controls)” value with Puccinia recondita is on record as 97%. Moreover, the “Test A disease control rating (100 = 100% disease control, 0 = no disease control relative to the controls)” value in assay [1] was 96%.
`CC(C)CCCOc1cc(Cl)c(N=CN(C)C)cc1Cl` [compound 126]: the “Test C disease control rating (100 = 100% disease control, 0 = no disease control relative to the controls)” value in the assay with Septoria nodorum is listed as 100%. Moreover, the “Test B disease control rating (100 = 100% disease control, 0 = no disease control relative to the controls)” value in the assay on Puccinia recondita is 40%. Further, in assay [1], the “Test A disease control rating (100 = 100% disease control, 0 = no disease control relative to the controls)” value came out at 95%.
Taken in the same sequence, the figures for `CCN(C(=S)Nc1cc(Cl)c(OCCCC(C)C)cc1Cl)C(C)C` [compound 127] were 100%, 99% and 0%.
The corresponding values for `COC(=O)C(=Nc1cc(C)c(OCCC[Si](C)(C)C)cc1C)N(C)C` [compound 128] are 73%, 95% and 98%.
As to `CCN(C)C(=Nc1cc(Cl)c(OCCC[Si](C)(C)C)cc1C)C(=O)OC` [compound 129], the “Test C disease control rating (100 = 100% disease control, 0 = no disease control relative to the controls)” value in the assay on Septoria nodorum is on record as 67%. In the assay with Puccinia recondita, the “Test B disease control rating (100 = 100% disease control, 0 = no disease control relative to the controls)” value came out at 100%. For the same molecule, the “Test A disease control rating (100 = 100% disease control, 0 = no disease control relative to the controls)” value in assay [1] was found to be 100%.
With `COC(=O)C(=Nc1cc(Cl)c(OCCC[Si](C)(C)C)cc1C)N(C)C` [compound 130], the “Test C disease control rating (100 = 100% disease control, 0 = no disease control relative to the controls)” value in the assay with Septoria nodorum was found to be 0%. Further, in the assay with Puccinia recondita, the “Test B disease control rating (100 = 100% disease control, 0 = no disease control relative to the controls)” value was found to be 97%. Also, the “Test A disease control rating (100 = 100% disease control, 0 = no disease control relative to the controls)” value in assay [1] was found to be 100%.
Consider `CCN(C)C(=Nc1cc(C)c(OCCC[Si](C)(C)C)cc1C)C(=O)OC` [compound 131], for which, in the assay on Septoria nodorum, the “Test C disease control rating (100 = 100% disease control, 0 = no disease control relative to the controls)” value is recorded as 96%. The “Test B disease control rating (100 = 100% disease control, 0 = no disease control relative to the controls)” value in the assay on Puccinia recondita is on record as 100%. Besides, the “Test A disease control rating (100 = 100% disease control, 0 = no disease control relative to the controls)” value in assay [1] is 67%.
The corresponding values for `Cc1cc(OCCCC(C)C)c(C)cc1N=CN(C)C` [compound 132] are 97%, 100% and 98%.
For the molecule `Cc1cc(NC(=S)N(C)C)c(C)c(Cl)c1OCCC[Si](C)(C)C` [compound 133], the “Test C disease control rating (100 = 100% disease control, 0 = no disease control relative to the controls)” value with Septoria nodorum is listed as 53%. Moreover, the “Test B disease control rating (100 = 100% disease control, 0 = no disease control relative to the controls)” value in the assay on Puccinia recondita is recorded as 85%. The “Test A disease control rating (100 = 100% disease control, 0 = no disease control relative to the controls)” value in assay [1] was determined as 99%.
Take `CCN(C)C(=S)Nc1cc(C)c(OCCC[Si](C)(C)C)c(Cl)c1C` [compound 134]: the “Test C disease control rating (100 = 100% disease control, 0 = no disease control relative to the controls)” value with Septoria nodorum is given as 81%. Moreover, the “Test B disease control rating (100 = 100% disease control, 0 = no disease control relative to the controls)” value with Puccinia recondita amounted to 100%. The “Test A disease control rating (100 = 100% disease control, 0 = no disease control relative to the controls)” value in assay [1] worked out at 100%.
Take `Cc1cc(NC(=S)N(C)C)c(C)c(Cl)c1OCCCC(C)C` [compound 136]: the “Test C disease control rating (100 = 100% disease control, 0 = no disease control relative to the controls)” value in the assay with Septoria nodorum is reported as 84%. Moreover, in the assay with Puccinia recondita, the “Test B disease control rating (100 = 100% disease control, 0 = no disease control relative to the controls)” value turned out to be 91%. Moreover, the “Test A disease control rating (100 = 100% disease control, 0 = no disease control relative to the controls)” value in assay [1] is recorded as 95%.
Regarding `CCN(C)C(=S)Nc1cc(C)c(OCCCC(C)C)c(Cl)c1C` [compound 137], the “Test C disease control rating (100 = 100% disease control, 0 = no disease control relative to the controls)” value with Septoria nodorum stood at 84%. The “Test B disease control rating (100 = 100% disease control, 0 = no disease control relative to the controls)” value in the assay on Puccinia recondita was 100%. The “Test A disease control rating (100 = 100% disease control, 0 = no disease control relative to the controls)” value in assay [1] came out at 100%.
As for `Cc1cc(NC(=S)N(C)C)c(C)c(Cl)c1OCCCC(C)(C)C` [compound 138], the “Test C disease control rating (100 = 100% disease control, 0 = no disease control relative to the controls)” value in the assay with Septoria nodorum worked out at 60%. Further, the “Test B disease control rating (100 = 100% disease control, 0 = no disease control relative to the controls)” value with Puccinia recondita came out at 74%. Further, the “Test A disease control rating (100 = 100% disease control, 0 = no disease control relative to the controls)” value in assay [1] stood at 98%.
